# Reference: US7928103B2, “Compounds which modulate the CB2 receptor” (Boehringer Ingelheim International GmbH, priority 2006, dated 2011)
# Tests used:
# human CB2R [1] = target: T1, human CB2R (Homo sapiens, UniProt P34972); assay: CB2R mediated modulation of cAMP synthesis; assay type: cell-based; set-up: host or cells: CHO cells; conditions: agonists decrease forskolin induced production of cAMP; CHO cells expressing human CB2R
# Experimental: B. CB2R Mediated Modulation of cAMP Synthesis:
# Compounds of the invention were evaluated for their CB2 agonist or inverse agonistic activity in accordance with the following experimental method.
# CHO cells expressing human CB2R (Euroscreen) were plated at a density of 5000 cells per well in 384 well plates and incubated overnight at 37° C. After removing the media, the cells were treated with test compounds diluted in stimulation buffer containing 1 mM IBMX, 0.25% BSA and 10 uM Forskolin. The assay was incubated for 30 minutes at 37° C. Cells were lysed and the cAMP concentration was measured using DiscoverX-XS cAMP kit, following the manufacturer's protocol. In this setting, agonists will decrease forskolin induced production of cAMP while inverse agonists will further increase forskolin induced production of cAMP. EC50 of agonists were calculated as follows. The maximal amount of cAMP produced by forskolin compared to the level of cAMP inhibited by 1 uM CP55940 is defined as 100%. The EC50 value of each test compound was determined as the concentration at which 50% of the forskolin-stimulated cAMP synthesis was inhibited. Data was analyzed using a four-parameter logistic model. (Model 205 of XLfit 4.0).
# human CB2R [2] = target: T1, human CB2R; assay: Human CB2 receptor binding (3H-CP55940 competition, SPA); set-up: purchased Perkin Elmer Life and Analytical Sciences; host or cells: HEK293 EBNA cells, stably transfected; conditions: through the use of the above described assays (CB1/CB2 binding, CB2R and CB1R cAMP); assay not specified further
# Experimental: A. Human CB1 and CB2 Receptor Binding:
# CB2 membranes were purchased and made from HEK293 EBNA cells stably transfected with human CB2 receptor cDNA (Perkin Elmer Life and Analytical Sciences). CB1 membranes were isolated from HEK cells stably co-transfected with human CB1 receptor and Gα16 cDNA's. The membrane preparation was bound to scintillation beads (Ysi-Poly-L-lysine SPA beads, GE Healthcare) for 4 hours at room temperature in assay buffer containing 50 mM Tris, pH 7.5, 2.5 mM EDTA, 5 mM MgCl2, 0.8% fatty acid free Bovine Serum Albumin. Unbound membrane was removed by washing in assay buffer. Membrane-bead mixture was added to 96-well assay plates in the amounts of 15 ug membrane per well (CB2) or 2.5 ug per well (CB1) and 1 mg SPA bead per well. Compounds were added to the membrane-bead mixture in dose-response concentrations ranging from 1×10^−5 M to 1×10^−10 M with 0.25% DMSO, final. The competition reaction was initiated with the addition of ^3H-CP55940 (Perkin Elmer Life and Analytical Sciences) at a final concentration of 1.5 nM (CB2) or 2.5 nM (CB1). The reaction was incubated at room temperature for 18 hours and read on TopCount NXT plate reader. Total and non-specific binding was determined in the absence and presence of 1.25 uM Win 55212 (Sigma). IC50 values for each compound were calculated as the concentration of compound that inhibits the specific binding of the radioactively labeled ligand to the receptor by 50% using the XLFit 4.1 four parameter logistic model. IC50 values were converted to inhibition constant (Ki) values using Cheng-Prusoff equation.
# T1 sequence (P34972 whole entry): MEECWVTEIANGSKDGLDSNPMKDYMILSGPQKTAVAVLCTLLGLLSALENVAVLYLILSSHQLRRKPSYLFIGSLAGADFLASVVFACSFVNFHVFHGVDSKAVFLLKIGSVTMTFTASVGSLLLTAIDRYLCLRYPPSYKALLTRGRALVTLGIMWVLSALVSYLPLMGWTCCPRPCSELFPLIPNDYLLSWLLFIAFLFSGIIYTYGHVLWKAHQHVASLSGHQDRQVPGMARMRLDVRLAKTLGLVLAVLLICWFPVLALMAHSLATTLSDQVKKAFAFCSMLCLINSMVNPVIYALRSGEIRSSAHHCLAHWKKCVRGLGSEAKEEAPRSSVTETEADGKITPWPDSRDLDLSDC
found to exhibit agonistic activity (human CB2R [1]),found to exhibit activity (human CB2R [2]),SMILES
exhibit agonistic activity,exhibit activity,"Clc1cccc(Nc2ccc(CN3CCO[C@@H](c4ccccc4)C3)cn2)c1Cl [Example 18, (2,3-Dichloro-phenyl)-[5-((S)-2-phenyl-morpholin-4-ylmethyl)-pyridin-2-yl]-amine]"
exhibit agonistic activity,exhibit activity,"Clc1ccc(Nc2ccc(CN3CCO[C@@H](c4ccccc4)C3)cn2)cc1Cl [Example 27, (3,4-Dichloro-phenyl)-[5-((S)-2-phenyl-morpholin-4-ylmethyl)-pyridin-2-yl]-amine]"
exhibit agonistic activity,exhibit activity,"Fc1ccccc1Nc1ccc(CN2CCO[C@@H](c3ccccc3)C2)cn1 [Example 16, (2-Fluoro-phenyl)-[5-((S)-2-phenyl-morpholin-4-ylmethyl)-pyridin-2-yl]-amine]"
exhibit agonistic activity,exhibit activity,"COc1ccccc1Nc1ccc(CN2CCO[C@@H](c3ccccc3)C2)cn1 [Example 21, (2-Methoxy-phenyl)-[5-((S)-2-phenyl-morpholin-4-ylmethyl)-pyridin-2-yl]-amine]"
exhibit agonistic activity,exhibit activity,"Cc1cccc(Nc2ccc(CN3CCO[C@@H](c4ccccc4)C3)cn2)c1 [Example 28, [5-((S)-2-Phenyl-morpholin-4-ylmethyl)-pyridin-2-yl]-m-tolyl-amine]"
exhibit agonistic activity,exhibit activity,"Clc1ccc(Nc2ccc(CN3CCO[C@@H](c4ccccc4)C3)cn2)c(Cl)c1 [Example 19, (2,4-Dichloro-phenyl)-[5-((S)-2-phenyl-morpholin-4-ylmethyl)-pyridin-2-yl]-amine]"
exhibit agonistic activity,exhibit activity,"Cc1ccccc1Nc1ccc(CN2CCO[C@@H](c3ccccc3)C2)cn1 [Example 24, [5-((S)-2-Phenyl-morpholin-4-ylmethyl)-pyridin-2-yl]-o-tolyl-amine]"
exhibit agonistic activity,exhibit activity,"Clc1cccc(Nc2ccc(CN3CCO[C@@H](c4ccccc4)C3)cn2)c1 [Example 26, (3-Chloro-phenyl)-[5-((S)-2-phenyl-morpholin-4-ylmethyl)-pyridin-2-yl]-amine]"

# More lines, now with the values behind:
SMILES,found to exhibit agonistic activity (human CB2R [1]),found to exhibit activity (human CB2R [2])
"c1ccc([C@H]2CN(Cc3ccc(Nc4ccc5ccccc5c4)nc3)CCO2)cc1 [Example 7, Naphthalen-2-yl-[5-((S)-2-phenyl-morpholin-4-ylmethyl)-pyridin-2-yl]-amine]",exhibit agonistic activity,exhibit activity
"c1ccc(Oc2ccc(CN3CCO[C@@H](c4ccccc4)C3)cc2)cc1 [Example 34, (S)-4-(4-Phenoxy-benzyl)-2-phenyl-morpholine]",exhibit agonistic activity,exhibit activity
"CC(C)(C)c1cc(Nc2ccc(CN3CCO[C@@H](c4ccccc4)C3)cn2)no1 [Example 1, (5-tert-Butyl-isoxazol-3-yl)-[5-((S)-2-phenyl-morpholin-4-ylmethyl)-pyridin-2-yl]-amine]",exhibit agonistic activity,exhibit activity
"c1ccc([C@H]2CN(Cc3ccc(Nc4cccc5ccccc45)nc3)CCO2)cc1 [Example 6, Naphthalen-1-yl-[5-((S)-2-phenyl-morpholin-4-ylmethyl)-pyridin-2-yl]-amine]",exhibit agonistic activity,exhibit activity
"CC(C)c1ccccc1Nc1ccc(CN2CCO[C@@H](c3ccccc3)C2)cn1 [Example 23, (2-Isopropyl-phenyl)-[5-((S)-2-phenyl-morpholin-4-ylmethyl)-pyridin-2-yl]-amine]",exhibit agonistic activity,exhibit activity
"CCc1ccc(Nc2ccc(CN3CCO[C@@H](c4ccccc4)C3)cn2)cc1 [Example 5, (4-Ethyl-phenyl)-[5-((S)-2-phenyl-morpholin-4-ylmethyl)-pyridin-2-yl]-amine]",exhibit agonistic activity,exhibit activity
"CCOc1ccc(Nc2ccc(CN3CCO[C@@H](c4ccccc4)C3)cn2)cc1 [Example 3, (4-Ethoxy-phenyl)-[5-((S)-2-phenyl-morpholin-4-ylmethyl)-pyridin-2-yl]-amine]",exhibit agonistic activity,exhibit activity
"c1ccc([C@H]2CN(Cc3ccc(Nc4cccnc4)nc3)CCO2)cc1 [Example 9, [5-((S)-2-Phenyl-morpholin-4-ylmethyl)-pyridin-2-yl]-pyridin-3-yl-amine]",exhibit agonistic activity,exhibit activity
"c1ccc([C@H]2CN(Cc3ccc(Nc4cccc5cccnc45)nc3)CCO2)cc1 [Example 13, [5-((S)-2-Phenyl-morpholin-4-ylmethyl)-pyridin-2-yl]-quinolin-8-yl-amine]",exhibit agonistic activity,exhibit activity
"c1ccc([C@H]2CN(Cc3ccc(Nc4cnc5ccccc5c4)nc3)CCO2)cc1 [Example 11, [5-((S)-2-Phenyl-morpholin-4-ylmethyl)-pyridin-2-yl]-quinolin-3-yl-amine]",exhibit agonistic activity,exhibit activity
"Cc1ccc(Nc2ccc(CN3CCO[C@@H](c4ccccc4)C3)cn2)cc1 [Example 31, [5-((S)-2-Phenyl-morpholin-4-ylmethyl)-pyridin-2-yl]-p-tolyl-amine]",exhibit agonistic activity,exhibit activity
"FC(F)(F)Oc1ccccc1Nc1ccc(CN2CCO[C@@H](c3ccccc3)C2)cn1 [Example 32, [5-((S)-2-Phenyl-morpholin-4-ylmethyl)-pyridin-2-yl]-(2-trifluoromethoxy-phenyl)-amine]",exhibit agonistic activity,exhibit activity
"c1ccc([C@H]2CN(Cc3ccc(Nc4ccncc4)nc3)CCO2)cc1 [Example 10, [5-((S)-2-Phenyl-morpholin-4-ylmethyl)-pyridin-2-yl]-pyridin-4-yl-amine]",exhibit agonistic activity,exhibit activity
"c1ccc([C@H]2CN(Cc3ccc(Nc4cccc5ncccc45)nc3)CCO2)cc1 [Example 12, [5-((S)-2-Phenyl-morpholin-4-ylmethyl)-pyridin-2-yl]-quinolin-5-yl-amine]",exhibit agonistic activity,exhibit activity
"Fc1ccc(Nc2ccc(CN3CCO[C@@H](c4ccccc4)C3)cn2)cc1 [Example 29, (4-Fluoro-phenyl)-[5-((S)-2-phenyl-morpholin-4-ylmethyl)-pyridin-2-yl]-amine]",exhibit agonistic activity,exhibit activity
"COc1ccc(Nc2ccc(CN3CCO[C@@H](c4ccccc4)C3)cn2)cc1 [Example 2, (4-Methoxy-phenyl)-[5-((S)-2-phenyl-morpholin-4-ylmethyl)-pyridin-2-yl]-amine]",exhibit agonistic activity,exhibit activity
"FC(F)(F)Oc1ccc(Nc2ccc(CN3CCO[C@@H](c4ccccc4)C3)cn2)cc1 [Example 4, [5-((S)-2-Phenyl-morpholin-4-ylmethyl)-pyridin-2-yl]-(4-trifluoromethoxy-phenyl)-amine]",exhibit agonistic activity,exhibit activity
